Results as given in US7901712B2, “Gliclazide nanosphere and manufacturing method therefor and application thereof” (Kaoshiung Medical University, priority 2006, dated 2011).

Experiments:
[1] = In vitro dissolution test, USP 24 paddle apparatus; format: physicochemical; details: 37°C; for DP (dissolved percentage): deionized water
Description: According to the USP 24 paddle apparatus, in vitro dissolution tests are performed with Hanson SR8 Plus (Chatsworth, USA). Three samples containing 80 mg of GL pure drug, GL solid complexes with an equivalent amount of GLs and GL nanospheres with an equivalent amount of GLs are poured separately into 900 ml deionized water at 37±0.5° C. with stirring rate at 100 rpm. Afterwards, 0.2 ml of each sample was withdrawn respectively at 1, 3, 5, 10, 15, 30, 60 and 120 min by the Waters transfer module (Milford, USA). Subsequently, the concentration of the samples was assayed using the HPLC method. The dissolution profiles are evaluated by the dissolution efficiency (DE) parameter (Khan, 1975) and the dissolved percentage (DP). The DE of GL pure drug, GL nanospheres and GL solid complex are calculated from the following equation (3).
wherein, y represents the percentage of dissolved product;
t1 and t2 represents the two different time points
y100 represents the maximum percentage of the dissolved sample

[2] = Particle size measurement by photon correlation spectroscopy; format: physicochemical; details: PCS, diluted in ethylene glycol, n = 3
Description: The average particle size of GL nanoparticles, GL solid complexes, the β-CD and the gliclazide pure drug were measured by the method of photon correlation spectroscopy (PCS) using Malvern Zetasizer 3000HSA (Malvern Worcestershire, UK). Prior to measurements, about 50 mg of each sample were diluted with 100 ml of ethylene glycol. The sizes of the above-mentioned four particle distributions were estimated by setting the intensity of the scattered light at λ=750 nm and the scattering angle at θ=90°. The background medium, i.e. the ethylene glycol (η=16.1 mPa·s) with the refractive index thereof being 1.431.

[3] = 5 min, 900 ml deionized water, 100 rpm, 80 mg GL equivalent, n = 6
[4] = 30 min, 900 ml deionized water, 100 rpm, n = 6
[5] = 60 min, 900 ml deionized water, 100 rpm, n = 6

DE5 (dissolution efficiency) [1, 3] | DP5 (dissolved percentage) [1, 3] | DE30 (dissolution efficiency) [1, 4] | DP30 (dissolved percentage) [1, 4] | DE60 (dissolution efficiency) [1, 5] | DP60 (dissolved percentage) [1, 5] | DP (dissolved percentage) ([1]; after 60 minutes) [%] | DP (dissolved percentage) ([1]; after five minutes) [%] | Mean size ± S.D. [2] [μm] | Structure (SMILES)
0.0129 | 1.44 | 0.0229 | 3.84 | 0.0416 | 8.23 | 8.23 | 1.44 | 47.56 ± 2.11 | Cc1ccc(S(=O)(=O)NC(=O)NN2CC3CCCC3C2)cc1 (stereo not shown) [GL]
– | – | – | – | – | – | – | – | 161.03±3.12 | OC[C@H]1O[C@@H]2O[C@H]3[C@H](O)[C@@H](O)[C@@H](O[C@H]4[C@H](O)[C@@H](O)[C@@H](O[C@H]5[C@H](O)[C@@H](O)[C@@H](O[C@H]6[C@H](O)[C@@H](O)[C@@H](O[C@H]7[C@H](O)[C@@H](O)[C@@H](O[C@H]8[C@H](O)[C@@H](O)[C@@H](O[C@H]1[C@H](O)[C@H]2O)O[C@@H]8CO)O[C@@H]7CO)O[C@@H]6CO)O[C@@H]5CO)O[C@@H]4CO)O[C@@H]3CO [β-CD]
